Consider 10 molecules from US20250127933A1, “Method of verifying effectiveness and stability of linker in Drug Delivery system and Structure therefor” (INDUSTRY-ACADEMIC COOPERATION FOUNDATION OF SUNCHON …, priority 2023, published 2025).

Data set [1] in a line: pH-dependent stability test. The data set is classed as physicochemical. As to conditions: 1 μM probe, pH 2 to 12, 25° C. Here is the method: Thermal stability was evaluated by the incubation of 1 μM of the probe in PBS buffer (pH 7.4) at different temperatures ranging from 25 to 45° C. for 20 min and reading fluorescence at each temperature. The pH stability test was performed by the incubation with 1 μM probe in different pH buffers (2 to 13) at 25° C. and recording fluorescence at each pH.

For data set [2], the system named is Leucine aminopeptidase (LAP). Put plainly: Enzymatic kinetic study of LAP reaction of activatable fluorescent probes. As to conditions: for Fluorophore released in LAP reaction (% yield) / Fluorophore released in LAP reaction (concentration) / kinetics of LAP reaction (time-dependent fluorescence emission): 1 μM probe, 10 μg/mL LAP, PBS pH 7.4, 37° C., 80 min; for Fluorophore released in LAP reaction (concentration): calculated from fluorophore calibration curves; for LAP response / fluorophore release (in words): LAP reaction, enzymatic study. The data set is classed as biochemical, porcine. Here is the method:
All spectroscopic readings were measured with BioTek Synergy™ H1 spectrophotometer, using 96 well microplate. A parent stock solution of probes was dissolved in DMSO to obtain 10 mM. Leucine aminopeptidase was dissolved in deionized water to obtain 1 mg/mL. All spectra measurements were carried out in PBS buffer solution (PBS buffer, 10 mM, pH 7.4, 37° C. The final volume in 96 well microplate was adjusted to 200 μL. RPMI 1640 was obtained from Thermo Scientific (Waltham, MA, USA). Bestatin hydrochloride (LAP inhibitor), DMSO and 2-mercaptoethanol were purchased from Sigma Aldrich (St. Louis, Mo, USA).
The kinetic study for LAP reaction was performed by incubation of 2 μg of LAP ([…]) with 1 μM probe in PBS buffer (10 mM, pH 7.4). The plate was incubated at 37° C. for 80 min with continuous shaking, and the emission spectra were recorded at the corresponding wavelength over time. A solution of LAP (2 μg/200 μL) was pretreated with bestatin (0, 1, 10, 50 and 100 μM) in PBS (10 mM, pH 7.4) at 37° C. for 30 min, and then 1 μM of probe was added. The mixture was incubated at 37° C., and the fluorescence was recorded on Synergy™ H1 using a 96-well microplate.
All reagents and solvents were obtained from commercial sources Sigma-Aldrich Chemical Co., Combi-Block, Tokyo Chemical Industries, Daejung Chemicals, and Alfa Aesar and used without purification. Anhydrous solvents were purchased from Sigma-Aldrich and used under dry nitrogen atmosphere. Ultrapure water was obtained from a water ultra-purification system. Completion of reaction was confirmed by thin layer chromatography (TLC) on Kiesegel 60F254 from Merck and all synthesized compounds were purified by flash column chromatography using ZEOprep 60 (40-63) […] silica gel from ZEOCHEM. ^1H and ^13C NMR spectra were measured on JEOL JNMECZ400s/L1 (400 MHZ) and CDCl3 or DMSO-d6 was used as the NMR solvents. The chemical shifts were quoted in parts per million (ppm) and the coupling constant (J) were reported in hertz unit (Hz). Chemical shifts (in ppm) were referenced to tetramethylsilane (δ=0 ppm) in CDCl3 as an internal standard. ^13C NMR spectra were reported in ppm referenced to the center line of the triplet at 77.0 ppm for CDCl3 or 39.5 ppm for DMSO-d6. All in vitro enzyme assays were performed by taking the absorbance and emission on Synergy™ H1 microplate reader from BioTek. Leucine aminopeptidase from porcine kidney and other enzymes were purchased from Sigma-Aldrich.

For data set [3], the system named is Leucine aminopeptidase (LAP). Described as above. The data set is classed as biochemical, porcine. As to conditions: 1 μM probe; LAP 1, 5, 10, 20, 50, 100 μg/mL; PBS pH 7.4, 80 min, 37° C.

Each structure is given as a SMILES string.

Regarding `CCN(CC)c1ccc2c(c1)Oc1cc(NC(=O)[C@@H](N)CC(C)C)ccc1C21OC(=O)c2ccccc21` (stereo partly drawn) [Probe 1, (2S)-2-Amino-N-(3′-(diethylamino)-3-oxo-3H-spiro[isobenzofuran-1,9′-xanthen]-6′-yl)-4-methylpentanamide], the “pH-dependent stability (fluorescence of fluorophore released by degradation)” value in data set [1] was “increased fluorescence emission in the pH range of 7-9”. In data set [2], the “Fluorophore released in LAP reaction (% yield)” value (shortened to “Fluorophore released … (% yield)”) is recorded as 66.7% and the “Fluorophore released in LAP reaction (concentration)” value was about 0.667 µM.
Consider `CCN(CC)c1ccc2c(c1)Oc1cc(NC(=O)OCc3ccc(NC(=O)[C@@H](N)CC(C)C)cc3)ccc1C21OC(=O)c2ccccc21` (stereo partly drawn) [Probe 3, 4-((S)-2-Amino-4-methylpentanamido)benzyl (3′-(diethylamino)-3-oxo-3H-spiro[isobenzofuran-1,9′-xanthen]-6′-yl)carbamate], for which the “pH-dependent stability (fluorescence of fluorophore released by degradation)” value in data set [1] was “no change in fluorescence emission according to the change in pH”. The “Fluorophore released … (% yield)” value came out at 98.7% in data set [2] (Rhoda-P2) and 74.7% in data set [2] (listed as Rhoda-P2). For the same molecule, the “Fluorophore released in LAP reaction (concentration)” value in data set [2] is about 0.987 µM.
In the case of `CCN(CC)c1ccc2c(c1)Oc1cc(OCc3ccc(NC(=O)[C@@H](N)CC(C)C)cc3)ccc1C21OC(=O)c2ccccc21` (stereo partly drawn) [Probe 5, (2S)-2-Amino-N-(4-(((3′-(diethylamino)-3-oxo-3H-spiro[isobenzofuran-1,9′-xanthen]-6′-yl)oxy)methyl)phenyl)-4-methylpentanamide], in data set [2], the “Fluorophore released … (% yield)” value amounted to 19.1%, the “kinetics of LAP reaction (time-dependent fluorescence emission)” value (“kinetics of LAP reaction” for short) is on record as “notably slower kinetics”, the “Fluorophore released in LAP reaction (concentration)” value was about 0.191 µM and the “LAP response / fluorophore release (in words)” value is “lower responses”.
On to `COc1ccc2c(c1)Oc1cc(OCc3ccc(NC(=O)[C@@H](N)CC(C)C)cc3)ccc1C21OC(=O)c2ccccc21` (stereo partly drawn) [Probe 6, (2S)-2-Amino-N-(4-(((3′-methoxy-3-oxo-3H-spiro[isobenzofuran-1,9′-xanthen]-6′-yl)oxy)methyl)phenyl)-4-methylpentanamide], for which, in data set [2], the “Fluorophore released … (% yield)” value was 37.3%, the “kinetics of LAP reaction” value is recorded as “notably slower kinetics”, the “Fluorophore released in LAP reaction (concentration)” value was about 0.373 µM and the “LAP response / fluorophore release (in words)” value is listed as “lower responses”. In addition, the “LAP response at various concentrations of LAP” value in data set [3] was “nearly maximal responses at 10 μg/mL of LAP”.
As for `CCN(CC)c1ccc2c(c1)Oc1cc(NC(=O)[C@@H](N)CC(C)C)ccc1C21OCc2ccccc21` (stereo partly drawn) [Probe 7, (2S)-2-Amino-N-(3′-(diethylamino)-3H-spiro[isobenzofuran-1,9′-xanthen]-6′-yl)-4-methylpentanamide], in data set [2], the “Fluorophore released … (% yield)” value is recorded as 74.1% and the “Fluorophore released in LAP reaction (concentration)” value is about 0.741 µM.
With `COc1ccc2c(c1)Oc1cc(NC(=O)[C@@H](N)CC(C)C)ccc1C21OCc2ccccc21` (stereo partly drawn) [Probe 8, (2S)-2-Amino-N-(3′-methoxy-3H-spiro[isobenzofuran-1,9′-xanthen]-6′-yl)-4-methylpentanamide], in data set [2], the “Fluorophore released … (% yield)” value worked out at 93.9%; the “kinetics of LAP reaction” value is “faster kinetics than those of the corresponding P2 and P3 probes”; the “Fluorophore released in LAP reaction (concentration)” value is about 0.939 µM.
For `CCN(CC)c1ccc2c(c1)Oc1cc(NC(=O)OCc3ccc(NC(=O)[C@@H](N)CC(C)C)cc3)ccc1C21OCc2ccccc21` (stereo partly drawn) [Probe 9, 4-((S)-2-Amino-4-methylpentanamido)benzyl (3′-(diethylamino)-3H-spiro[isobenzofuran-1,9′-xanthen]-6′-yl)carbamate], in data set [2], the “Fluorophore released … (% yield)” value stood at 32.8% and the “Fluorophore released in LAP reaction (concentration)” value is about 0.328 µM.
Turning to `COc1ccc2c(c1)Oc1cc(NC(=O)OCc3ccc(NC(=O)[C@@H](N)CC(C)C)cc3)ccc1C21OCc2ccccc21` (stereo partly drawn) [Probe 10, 4-((S)-2-Amino-4-methylpentanamido)benzyl (3′-methoxy-3H-spiro[isobenzofuran-1,9′-xanthen]-6′-yl)carbamate], in data set [2], the “Fluorophore released … (% yield)” value amounted to 67.6% and the “Fluorophore released in LAP reaction (concentration)” value was about 0.676 µM.
For the molecule `CCN(CC)c1ccc2c(c1)Oc1cc(OCc3ccc(NC(=O)[C@@H](N)CC(C)C)cc3)ccc1C21OCc2ccccc21` (stereo partly drawn) [Probe 11, (2S)-2-Amino-N-(4-(((3′-(diethylamino)-3H-spiro[isobenzofuran-1,9′-xanthen]-6′-yl)oxy)methyl)phenyl)-4-methylpentanamide], in data set [2], the “Fluorophore released … (% yield)” value came to 29.8%, the “kinetics of LAP reaction” value was “notably slower kinetics”, the “Fluorophore released in LAP reaction (concentration)” value was about 0.298 µM and the “LAP response / fluorophore release (in words)” value is recorded as “lower responses”.
As to `COc1ccc2c(c1)Oc1cc(OCc3ccc(NC(=O)[C@@H](N)CC(C)C)cc3)ccc1C21OCc2ccccc21` (stereo partly drawn) [Probe 12, (2S)-2-Amino-N-(4-(((3′-methoxy-3H-spiro[isobenzofuran-1,9′-xanthen]-6′-yl)oxy)methyl)phenyl)-4-methylpentanamide], in data set [2], the “Fluorophore released … (% yield)” value amounted to 73.6% and the “Fluorophore released in LAP reaction (concentration)” value was about 0.736 µM.
